Measured values published in patent US20230014151A1, “COMBINATION ANTIVIRAL THERAPY FOR MEASLES” (The Trustees of Columbia University in the City of New York, priority 2019, published 2023).
Read-outs that look alike come from different tables or passages of the source. Numbered stars: 1 amine (or outer) side, 2 acyl side, 3 side chain; on linkers, the order of the positions; unused ones are H or OH. Bridge positions count the residues as written; N and C are the ends. Square brackets hold non-standard residues; d marks the D form. Peptide text beside a SMILES is read from it. I, II: the chains in the order shown. * marks the point of attachment. X1 = CC(C)CCC[C@@H](C)[C@H]1CC[C@H]2[C@@H]3CC=C4C[C@@H](OCCN(CCNC(=O)CCOCCOCCOCCOCCNC(=O)CCCN5C(=O)CC([*:1])C5=O)CCNC(=O)CCOCCOCCOCCOCCNC(=O)CCCN5C(=O)CC([*:2])C5=O)CC[C@]4(C)[C@H]3CC[C@]12C; Succinimide(1-Et,3-yl) = CCN1C(=O)CC(*)C1=O; Cbz = O=C(OCc1ccccc1)*

What was measured:
[1] = molecular target: viral glycoproteins (H and F); Nectin-4 (Measles virus, UniProt Q786F3); assay: beta-galactosidase complementation-based fusion assay, Nectin-4 target cells
[2] = molecular target: viral glycoproteins (H and F); CD150; assay: beta-galactosidase complementation-based fusion assay, CD150 target cells; conditions: for IC90: read-out: CD150 IC90
[3] = molecular target: measles virus (MeV) fusion protein F, wild type, expressed on cells (measles virus) (UniProt Q786F3); assay: cell-based or functional assay
[4] = Nectin4 IC50, Table 3 (extended version)
[5] = IC50, Table 2 (salient peptides), Nectin-4 target cells

CC[C@H](C)[C@H](NC(=O)[C@H](C)NC(=O)[C@H](CC(N)=O)NC(=O)CNC(=O)[C@H](CC(C)C)NC(=O)[C@H](CC(N)=O)NC(=O)[C@@H](NC(=O)CNC(=O)[C@@H](NC(=O)[C@H](CC(=O)O)NC(=O)[C@H](CC(C)C)NC(=O)[C@H](CCCNC(=N)N)NC(=O)[C@H](CCC(=O)O)NC(=O)[C@H](CC(C)C)NC(=O)[C@H](CO)NC(=O)[C@@H](NC(=O)[C@@H]1CCCN1C(=O)[C@@H]1CCCN1C(=O)CNC(=O)[C@H](CO)NC(=O)CNC(=O)[C@H](CO)NC(=O)CNC(=O)CNC(=O)[C@H](Cc1ccccc1)NC(=O)[C@@H](Cc1ccccc1)NC(=O)OCc1ccccc1)[C@@H](C)CC)C(C)C)[C@@H](C)O)C(=O)N[C@@H](C)C(=O)N[C@@H](CCCCN)C(=O)N[C@@H](CC(C)C)C(=O)N[C@@H](CCC(=O)O)C(=O)N[C@@H](CC(=O)O)C(=O)N[C@@H](C)C(=O)N[C@@H](CCCCN)C(=O)N[C@@H](CCC(=O)O)C(=O)N[C@@H](CC(C)C)C(=O)N[C@@H](CC(C)C)C(=O)N[C@@H](CCC(=O)O)C(=O)N[C@@H](CO)C(=O)N[C@@H](CO)C(=O)N[C@@H](CC(=O)O)C(=O)N[C@@H](CCC(N)=O)C(=O)N[C@H](C(=O)N[C@@H](CC(C)C)C(=O)N[C@@H](CCCNC(=N)N)C(=O)N[C@@H](CSC1CC(=O)N(CCCC(=O)NCCOCCOCCOCCOCCC(=O)NCCN(CCNC(=O)CCOCCOCCOCCOCCNC(=O)CCCN2C(=O)CC(SC[C@H](NC(=O)[C@H](CCCNC(=N)N)NC(=O)[C@H](CC(C)C)NC(=O)[C@@H](NC(=O)[C@H](CCC(N)=O)NC(=O)[C@H](CC(=O)O)NC(=O)[C@H](CO)NC(=O)[C@H](CO)NC(=O)[C@H](CCC(=O)O)NC(=O)[C@H](CC(C)C)NC(=O)[C@H](CC(C)C)NC(=O)[C@H](CCC(=O)O)NC(=O)[C@H](CCCCN)NC(=O)[C@H](C)NC(=O)[C@H](CC(=O)O)NC(=O)[C@H](CCC(=O)O)NC(=O)[C@H](CC(C)C)NC(=O)[C@H](CCCCN)NC(=O)[C@H](C)NC(=O)[C@@H](NC(=O)[C@H](C)NC(=O)[C@H](CC(N)=O)NC(=O)CNC(=O)[C@H](CC(C)C)NC(=O)[C@H](CC(N)=O)NC(=O)[C@@H](NC(=O)CNC(=O)[C@@H](NC(=O)[C@H](CC(=O)O)NC(=O)[C@H](CC(C)C)NC(=O)[C@H](CCCNC(=N)N)NC(=O)[C@H](CCC(=O)O)NC(=O)[C@H](CC(C)C)NC(=O)[C@H](CO)NC(=O)[C@@H](NC(=O)[C@@H]3CCCN3C(=O)[C@@H]3CCCN3C(=O)CNC(=O)[C@H](CO)NC(=O)CNC(=O)[C@H](CO)NC(=O)CNC(=O)CNC(=O)[C@H](Cc3ccccc3)NC(=O)[C@@H](Cc3ccccc3)NC(=O)OCc3ccccc3)[C@@H](C)CC)C(C)C)[C@@H](C)O)[C@@H](C)CC)[C@@H](C)CC)C(=O)O)C2=O)CCO[C@H]2CC[C@@]3(C)C(=CC[C@H]4[C@@H]5CC[C@H]([C@H](C)CCCC(C)C)[C@@]5(C)CC[C@@H]43)C2)C1=O)C(=O)O)[C@@H](C)CC (some centres unmarked)
IC50 [1]: 60.2 ± 65.5 nM | IC90 ([1]; read-out: Nectin4 IC90): 220 ± 189 nM | IC50 [2]: 58.9 ± 69.8 nM | IC90 [2]: 287 ± 24.5 nM

CC(C)CCC[C@@H](C)[C@H]1CC[C@H]2[C@@H]3CC=C4C[C@@H](OC(=O)CSC[C@H](NC(=O)CNC(=O)[C@H](Cc5ccccc5)NC(=O)[C@@H](Cc5ccccc5)NC(=O)OCc5ccccc5)C(=O)O)CC[C@]4(C)[C@H]3CC[C@]12C [FIP-chol (no GSGSG)]
IC50 [1, 4]: > 1000 nM | IC90 ([1]; read-out: Nectin4 IC90): > 1000 nM | IC50 [2]: > 1000 nM | IC90 [2]: > 1000 nM

CC(C)CCC[C@@H](C)[C@H]1CC[C@H]2[C@@H]3CC=C4C[C@@H](OC(=O)CCOCCOCCOCCOCCNC(=O)CSC[C@H](NC(=O)CNC(=O)[C@H](Cc5ccccc5)NC(=O)[C@@H](Cc5ccccc5)NC(=O)OCc5ccccc5)C(=O)O)CC[C@]4(C)[C@H]3CC[C@]12C [FIP-peg4-chol (no GSGSG)]
IC90 ([1]; read-out: Nectin4 IC90): > 1000 nM | IC90 [2]: > 900 nM

CCN1C(=O)CC(SC[C@H](NC(=O)CNC(=O)[C@H](Cc2ccccc2)NC(=O)[C@@H](Cc2ccccc2)NC(=O)OCc2ccccc2)C(=O)O)C1=O (some centres unmarked) [Monomer N-Maleimide FIP (no GSGSG)] (Cbz-[dF]FGC(Succinimide(1-Et,3-yl))-OH)
IC90 ([1]; read-out: Nectin4 IC90): > 1000 nM | IC90 [2]: > 1000 nM

CC[C@H](C)[C@H](NC(=O)[C@H](C)NC(=O)[C@H](CC(N)=O)NC(=O)CNC(=O)[C@H](CC(C)C)NC(=O)[C@H](CC(N)=O)NC(=O)[C@@H](NC(=O)CNC(=O)[C@@H](NC(=O)[C@H](CC(=O)O)NC(=O)[C@H](CC(C)C)NC(=O)[C@H](CCCNC(=N)N)NC(=O)[C@H](CCC(=O)O)NC(=O)[C@H](CC(C)C)NC(=O)[C@H](CO)NC(=O)[C@@H](NC(=O)[C@@H]1CCCN1C(=O)[C@@H]1CCCN1C(=O)CNC(=O)[C@H](CO)NC(=O)CNC(=O)[C@H](CO)NC(=O)CNC(=O)CNC(=O)[C@H](Cc1ccccc1)NC(=O)[C@@H](Cc1ccccc1)NC(=O)OCc1ccccc1)[C@@H](C)CC)C(C)C)[C@@H](C)O)C(=O)N[C@@H](C)C(=O)N[C@@H](CCCCN)C(=O)N[C@@H](CC(C)C)C(=O)N[C@@H](CCC(=O)O)C(=O)N[C@@H](CC(=O)O)C(=O)N[C@@H](C)C(=O)N[C@@H](CCCCN)C(=O)N[C@@H](CCC(=O)O)C(=O)N[C@@H](CC(C)C)C(=O)N[C@@H](CC(C)C)C(=O)N[C@@H](CCC(=O)O)C(=O)N[C@@H](CO)C(=O)N[C@@H](CO)C(=O)N[C@@H](CC(=O)O)C(=O)N[C@@H](CCC(N)=O)C(=O)N[C@H](C(=O)N[C@@H](CC(C)C)C(=O)N[C@@H](CCCNC(=N)N)C(=O)N[C@@H](CSC1CC(=O)N(CCC(=O)NCCOCCOCCOCCOCCOCCOCCOCCOCCOCCOCCOCCNC(=O)CCN2C(=O)CC(SC[C@H](NC(=O)[C@H](CCCNC(=N)N)NC(=O)[C@H](CC(C)C)NC(=O)[C@@H](NC(=O)[C@H](CCC(N)=O)NC(=O)[C@H](CC(=O)O)NC(=O)[C@H](CO)NC(=O)[C@H](CO)NC(=O)[C@H](CCC(=O)O)NC(=O)[C@H](CC(C)C)NC(=O)[C@H](CC(C)C)NC(=O)[C@H](CCC(=O)O)NC(=O)[C@H](CCCCN)NC(=O)[C@H](C)NC(=O)[C@H](CC(=O)O)NC(=O)[C@H](CCC(=O)O)NC(=O)[C@H](CC(C)C)NC(=O)[C@H](CCCCN)NC(=O)[C@H](C)NC(=O)[C@@H](NC(=O)[C@H](C)NC(=O)[C@H](CC(N)=O)NC(=O)CNC(=O)[C@H](CC(C)C)NC(=O)[C@H](CC(N)=O)NC(=O)[C@@H](NC(=O)CNC(=O)[C@@H](NC(=O)[C@H](CC(=O)O)NC(=O)[C@H](CC(C)C)NC(=O)[C@H](CCCNC(=N)N)NC(=O)[C@H](CCC(=O)O)NC(=O)[C@H](CC(C)C)NC(=O)[C@H](CO)NC(=O)[C@@H](NC(=O)[C@@H]3CCCN3C(=O)[C@@H]3CCCN3C(=O)CNC(=O)[C@H](CO)NC(=O)CNC(=O)[C@H](CO)NC(=O)CNC(=O)CNC(=O)[C@H](Cc3ccccc3)NC(=O)[C@@H](Cc3ccccc3)NC(=O)OCc3ccccc3)[C@@H](C)CC)C(C)C)[C@@H](C)O)[C@@H](C)CC)[C@@H](C)CC)C(=O)O)C2=O)C1=O)C(=O)O)[C@@H](C)CC (some centres unmarked) [[FIP-HRC450-485]2-peg11 (no GSGSG)]
IC90 ([1]; read-out: Nectin4 IC90): > 1000 nM | IC90 [2]: > 1000 nM

CC(C)CCC[C@@H](C)[C@H]1CC[C@H]2[C@@H]3CC=C4C[C@@H](OCCN(CCNC(=O)CCOCCOCCOCCOCCNC(=O)CCCN5C(=O)CC(SC[C@H](NC(=O)CNC(=O)[C@H](Cc6ccccc6)NC(=O)[C@@H](Cc6ccccc6)NC(=O)OCc6ccccc6)C(=O)O)C5=O)CCNC(=O)CCOCCOCCOCCOCCNC(=O)CCCN5C(=O)CC(SC[C@H](NC(=O)CNC(=O)[C@H](Cc6ccccc6)NC(=O)[C@@H](Cc6ccccc6)NC(=O)OCc6ccccc6)C(=O)O)C5=O)CC[C@]4(C)[C@H]3CC[C@]12C (some centres unmarked) [[FIP-peg4]2-chol (no GSGSG)]
IC50 [1, 4]: > 1000 nM | IC90 ([1]; read-out: Nectin4 IC90): > 1000 nM | IC50 [2]: > 700 nM | IC90 [2]: > 1000 nM

CC(C)CCC[C@@H](C)[C@H]1CC[C@H]2[C@@H]3CC=C4C[C@@H](OCCN(CCNC(=O)CCOCCOCCOCCOCCNC(=O)CCCN5C(=O)CC(SC[C@H](NC(=O)CNC(=O)[C@H](CO)NC(=O)CNC(=O)[C@H](CO)NC(=O)CNC(=O)CNC(=O)[C@H](Cc6ccccc6)NC(=O)[C@@H](Cc6ccccc6)NC(=O)OCc6ccccc6)C(=O)O)C5=O)CCNC(=O)CCOCCOCCOCCOCCNC(=O)CCCN5C(=O)CC(SC[C@H](NC(=O)CNC(=O)[C@H](CO)NC(=O)CNC(=O)[C@H](CO)NC(=O)CNC(=O)CNC(=O)[C@H](Cc6ccccc6)NC(=O)[C@@H](Cc6ccccc6)NC(=O)OCc6ccccc6)C(=O)O)C5=O)CC[C@]4(C)[C@H]3CC[C@]12C (some centres unmarked) [[FIP-peg4]2-chol] (I: Cbz-[dF]FGGSGSGC-OH / II: Cbz-[dF]FGGSGSGC-OH; linker I:9-II:9 via X1)
IC90 [1]: 1845 ± 16 nM | IC50 [1, 5]: 452 ± 196 nM | IC90 ([1]; read-out: Nectin4 IC90): 1845 ± 16 nM | IC50 [2]: 510 ± 360 nM | IC90 [2]: 927 ± 359 nM

O=C(CCN1C(=O)CC(SC[C@H](NC(=O)CNC(=O)[C@H](Cc2ccccc2)NC(=O)[C@@H](Cc2ccccc2)NC(=O)OCc2ccccc2)C(=O)O)C1=O)NCCOCCOCCOCCOCCOCCOCCOCCOCCOCCOCCOCCNC(=O)CCN1C(=O)CC(SC[C@H](NC(=O)CNC(=O)[C@H](Cc2ccccc2)NC(=O)[C@@H](Cc2ccccc2)NC(=O)OCc2ccccc2)C(=O)O)C1=O (some centres unmarked) [[FIP]2-peg11 (no GSGSG)]
IC90 [1]: > 10000 nM | IC50 [1, 5]: > 10000 nM | IC50 [1, 4]: > 700 nM | IC90 ([1]; read-out: Nectin4 IC90): > 1000 nM | IC50 [2]: > 600 nM | IC90 [2]: > 1000 nM

FIP-HRC450-485-peg4-chol (no GSGSG) (peptide)
IC50, beta-galactosidase complementation-based fusion assay, Nectin-4 target cells [3]: 707 nM | IC90, beta-galactosidase complementation-based fusion assay, Nectin-4 target cells [3]: 825 nM

FIP-chol (no GSGSG) (peptide)
IC50, beta-galactosidase complementation-based fusion assay, Nectin-4 target cells [3]: > 1000 nM | IC90, beta-galactosidase complementation-based fusion assay, Nectin-4 target cells [3]: > 1000 nM

FIP-peg4-chol (no GSGSG) (peptide)
IC50, beta-galactosidase complementation-based fusion assay, Nectin-4 target cells [3]: > 700 nM | IC90, beta-galactosidase complementation-based fusion assay, Nectin-4 target cells [3]: > 1000 nM
